Source: BigSolDB 2.1

c1nc[nH]n1
Details	solubility (mole fraction)
in ethanol, 283.18 K	0.131
in ethanol, 288.25 K	0.147
in ethanol, 293.21 K	0.164
in ethanol, 298.18 K	0.184
in ethanol, 303.15 K	0.205
in ethanol, 308.14 K	0.228
in ethanol, 313.21 K	0.253
in ethanol, 318.23 K	0.28
in ethanol, 323.22 K	0.308
in ethanol, 328.27 K	0.339
in ethanol, 333.28 K	0.371
in ethyl acetate, 283.21 K	0.0268
in ethyl acetate, 288.29 K	0.032
in ethyl acetate, 293.21 K	0.0365
in ethyl acetate, 298.19 K	0.041
in ethyl acetate, 303.18 K	0.0457
in ethyl acetate, 308.27 K	0.0513
in ethyl acetate, 313.2 K	0.0578
in ethyl acetate, 318.21 K	0.066
in ethyl acetate, 323.16 K	0.0759
in ethyl acetate, 328.17 K	0.0884
in ethyl acetate, 333.27 K	0.104
in ethyl formate, 283.21 K	0.0208
in ethyl formate, 288.23 K	0.0246
in ethyl formate, 293.29 K	0.0286
in ethyl formate, 298.24 K	0.0331
in ethyl formate, 303.26 K	0.0384
in ethyl formate, 308.17 K	0.0446
in ethyl formate, 313.24 K	0.0524
in ethyl formate, 318.27 K	0.0617
in ethyl formate, 323.31 K	0.073
in isopropanol, 283.17 K	0.129
in isopropanol, 288.21 K	0.144
in isopropanol, 293.16 K	0.159
in isopropanol, 298.23 K	0.176
in isopropanol, 303.27 K	0.193
in isopropanol, 308.19 K	0.211
in isopropanol, 313.24 K	0.232
in isopropanol, 318.22 K	0.254
in isopropanol, 323.27 K	0.278
in isopropanol, 328.2 K	0.304
in isopropanol, 333.19 K	0.332
in isopropanol, 338.18 K	0.363
in isopropanol, 343.26 K	0.397
in methyl acetate, 283.27 K	0.0968
in methyl acetate, 288.21 K	0.106
in methyl acetate, 293.19 K	0.117
in methyl acetate, 298.21 K	0.128
in methyl acetate, 303.2 K	0.141
in methyl acetate, 308.29 K	0.155
in methyl acetate, 313.18 K	0.171
in methyl acetate, 318.16 K	0.189
in methyl acetate, 323.24 K	0.21
in n-butyl acetate, 283.2 K	0.0141
in n-butyl acetate, 288.23 K	0.0166
in n-butyl acetate, 293.26 K	0.0202
in n-butyl acetate, 298.22 K	0.024
in n-butyl acetate, 303.24 K	0.0279
in n-butyl acetate, 308.17 K	0.032
in n-butyl acetate, 313.28 K	0.037
in n-butyl acetate, 318.21 K	0.0428
in n-butyl acetate, 323.16 K	0.0498
in n-butyl acetate, 328.24 K	0.0586
in n-butyl acetate, 333.19 K	0.0688
in n-butyl acetate, 338.18 K	0.0809
in n-butyl acetate, 343.23 K	0.0955
in n-butyl acetate, 348.18 K	0.113
in n-butyl acetate, 353.19 K	0.136
in n-butyl acetate, 358.18 K	0.167
in n-butyl acetate, 363.26 K	0.211
in n-propanol, 283.17 K	0.12
in n-propanol, 288.18 K	0.135
in n-propanol, 293.27 K	0.15
in n-propanol, 298.19 K	0.168
in n-propanol, 303.21 K	0.187
in n-propanol, 308.23 K	0.208
in n-propanol, 313.27 K	0.231
in n-propanol, 318.2 K	0.256
in n-propanol, 323.22 K	0.283
in n-propanol, 328.28 K	0.313
in n-propanol, 333.18 K	0.344
in n-propanol, 338.23 K	0.378
in n-propanol, 343.29 K	0.415
in propylene glycol, 283.16 K	0.174
in propylene glycol, 288.27 K	0.212
in propylene glycol, 293.26 K	0.249
in propylene glycol, 298.16 K	0.284
in propylene glycol, 303.19 K	0.319
in propylene glycol, 308.18 K	0.353
in propylene glycol, 313.2 K	0.386
in propylene glycol, 318.28 K	0.419
in propylene glycol, 323.21 K	0.451
in propylene glycol, 328.22 K	0.483
in propylene glycol, 333.23 K	0.514
in propylene glycol, 338.29 K	0.545
in propylene glycol, 343.21 K	0.574
in propylene glycol, 348.23 K	0.604
in propylene glycol, 353.24 K	0.633
